This is an account of results in US9149426B2, “Nanoparticle composition and methods to make and use the same” (priority 2012, dated 2015).

The conditions of series [1]: at 25° C.; cited from earlier work.
Series [2] in a line: Solubility of organic phase solvents in water or poly(ortho ester) polymer.
Another series has as its system Xenopus laevis frogs. The series is described as follows: Effective dose in in vitro studies using frogs.
For a further series, the system named is HEK-293 cells. The series is described as follows: In vitro cytotoxicity, MTT assay. To be noted: 1% Triton-X 100, 80 μM H2O2, 48 h.

Experimental for HEK-293 cells: The amount of lactic acid release was quantified by using lactate assay kit (BioVision Inc., Milpitas, Calif.) following manufacturer's specifications. […] Forty microliters of MTT reagent (5 mg/ml in phosphate buffered saline) was added to each well. After 2 h of incubation at 37° C., 200 μl of dimethylsulfoxide (DMSO) was added to each well to dissolve the formazan crystals. After 5 minutes, the optical absorbance was measured at 570 nm and converted to percent viability relative to control (untreated) cells. All samples were tested in quadruplicate.
One hundred microliters of diluted nanoparticles (0.1, 0.2, 0.3, 0.4, 0.5, 0.6, and 1 mg/ml) stock solution was added to each well and incubated with the cells for 48 h, and then replaced with growth medium (160 μl). MTT reagent (40 μl) was added to each well to form formazan. After 2 h of incubation at 37° C., 200 μl of dimethylsulfoxide (DMSO) was added to each well to dissolve the formazan crystals. After 5 m optical absorbance was measured at 570 nm and converted to percent viability relative to control (untreated) cells (n=4).

On to `CC(C)=O` [Acetone], for which the Solubility in water entry in series [1] is “Very soluble”. Also, the “Solubility of POE (poly(ortho ester) polymer) in the organic phase solvent” value in series [2] is “Immiscible”. Turning to “asialo, galactosylated, triantennary (NA3) oligosaccharides”, the “Effective dose in vitro” value with Xenopus laevis frogs came out at 1 nM.

With `OO` [H2O2], the “Cell viability of positive controls” value in the series with HEK-293 cells worked out at 8%. With `ClCCl` [Dichloromethane], the Solubility in water result in series [1] is “Immiscible (1.6% (w/w)”. In series [2], the “Solubility of POE (poly(ortho ester) polymer) in the organic phase solvent” value is given as “Excellent solvent”. With Triton-X 100, the “Cell viability of positive controls” value in the series on HEK-293 cells amounted to 5%.

Regarding `CCOC(C)=O` [Ethyl acetate], the Solubility in water entry in series [1] is on record as “(8.7% (w/w)”.
